Test [1] has as its system CRTC3. Put plainly: CRTC3 nuclear translocation (immunofluorescence). Type of test: cell-based, mouse. The following applies: bone-marrow-derived macrophages, 1 h. The method, then:
Macrophages were seeded on glass coverslips and treated with inhibitors for 1 h. Cells were then fixed for 10 min in 4% paraformaldehyde, permeabilized for 5 min using 0.1% Triton X-100 in PBS and blocked for 45 min using 3% BSA in PBS. Cells were stained with anti-CRTC3 and anti-tubulin followed by Alexa Fluor® […] anti-rabbit and Alexa Fluor® 488-conjugated anti-mouse antibodies respectively. Antibodies were diluted in blocking buffer and incubated with the cells for 45 min. Cells were mounted in Prolong Gold Antifade Reagent containing DAPI (Invitrogen) and visualized under a Zeiss LSM 700 confocal microscope using an Alpha Plan-Apochromat ×100/numerical aperture (NA) 1.46 objective (optical section thickness 0.7 μm). Fields of cells were selected at random using only the DAPI stained channel. Optical sections were taken through the centre of the nuclei, 10 fields collected per coverslip and images were quantified using the Volocity programme (PerkinElmer). Nuclei were identified using the DAPI stained channel, merged objects were separated and the mean intensity of the […] in the nuclear and cytoplasmic regions was measured. For each field, the mean of the nuclear to cytoplasmic intensity ratio was calculated, which was subsequently used to determine the overall mean nuclear to cytoplasmic intensity ratio for each treatment.

Test [2] has as its system Bone-marrow-derived macrophages. Put plainly: Pro-inflammatory cytokine secretion (BIOPLEX). Type of test: cell-based, mouse. The following applies: 3 μM bosutinib or 0.3 μM dasatinib 1 h, LPS 8 h. The method, then:
The concentration of TNFα, IL-6, IL-10 and IL-12p40 in cell-free culture supernatants were measured using the Bio-Plex Pro Assay system (Bio-Rad).

Test [3] concerns the target T1, IKK epsilon (Homo sapiens, UniProt Q14164).
T1 sequence (Q14164 1-716): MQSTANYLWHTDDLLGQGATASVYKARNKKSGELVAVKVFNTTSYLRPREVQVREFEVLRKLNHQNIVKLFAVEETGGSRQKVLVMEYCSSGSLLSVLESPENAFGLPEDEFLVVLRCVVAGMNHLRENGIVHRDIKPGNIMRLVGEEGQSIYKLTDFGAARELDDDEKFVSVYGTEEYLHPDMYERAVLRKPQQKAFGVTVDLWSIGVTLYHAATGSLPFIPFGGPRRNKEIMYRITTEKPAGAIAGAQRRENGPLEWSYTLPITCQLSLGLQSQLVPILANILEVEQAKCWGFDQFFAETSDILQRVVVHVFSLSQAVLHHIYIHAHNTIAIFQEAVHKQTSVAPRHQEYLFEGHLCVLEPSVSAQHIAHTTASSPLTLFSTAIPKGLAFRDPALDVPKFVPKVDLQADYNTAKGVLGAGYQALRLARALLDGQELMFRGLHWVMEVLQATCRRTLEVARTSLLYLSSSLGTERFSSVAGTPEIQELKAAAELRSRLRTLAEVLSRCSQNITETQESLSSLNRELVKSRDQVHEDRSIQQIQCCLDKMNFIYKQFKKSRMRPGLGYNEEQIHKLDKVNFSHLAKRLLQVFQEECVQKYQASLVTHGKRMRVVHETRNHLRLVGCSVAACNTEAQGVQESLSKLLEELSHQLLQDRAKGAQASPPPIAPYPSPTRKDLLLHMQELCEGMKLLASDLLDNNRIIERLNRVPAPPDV
Description: Kinase profiling. It is filed as biochemical.

Test [4] deals with IRR (Homo sapiens, UniProt P14616). Put plainly: Kinase profiling. It is filed as biochemical.
IRR, sequence (P14616 27-1297): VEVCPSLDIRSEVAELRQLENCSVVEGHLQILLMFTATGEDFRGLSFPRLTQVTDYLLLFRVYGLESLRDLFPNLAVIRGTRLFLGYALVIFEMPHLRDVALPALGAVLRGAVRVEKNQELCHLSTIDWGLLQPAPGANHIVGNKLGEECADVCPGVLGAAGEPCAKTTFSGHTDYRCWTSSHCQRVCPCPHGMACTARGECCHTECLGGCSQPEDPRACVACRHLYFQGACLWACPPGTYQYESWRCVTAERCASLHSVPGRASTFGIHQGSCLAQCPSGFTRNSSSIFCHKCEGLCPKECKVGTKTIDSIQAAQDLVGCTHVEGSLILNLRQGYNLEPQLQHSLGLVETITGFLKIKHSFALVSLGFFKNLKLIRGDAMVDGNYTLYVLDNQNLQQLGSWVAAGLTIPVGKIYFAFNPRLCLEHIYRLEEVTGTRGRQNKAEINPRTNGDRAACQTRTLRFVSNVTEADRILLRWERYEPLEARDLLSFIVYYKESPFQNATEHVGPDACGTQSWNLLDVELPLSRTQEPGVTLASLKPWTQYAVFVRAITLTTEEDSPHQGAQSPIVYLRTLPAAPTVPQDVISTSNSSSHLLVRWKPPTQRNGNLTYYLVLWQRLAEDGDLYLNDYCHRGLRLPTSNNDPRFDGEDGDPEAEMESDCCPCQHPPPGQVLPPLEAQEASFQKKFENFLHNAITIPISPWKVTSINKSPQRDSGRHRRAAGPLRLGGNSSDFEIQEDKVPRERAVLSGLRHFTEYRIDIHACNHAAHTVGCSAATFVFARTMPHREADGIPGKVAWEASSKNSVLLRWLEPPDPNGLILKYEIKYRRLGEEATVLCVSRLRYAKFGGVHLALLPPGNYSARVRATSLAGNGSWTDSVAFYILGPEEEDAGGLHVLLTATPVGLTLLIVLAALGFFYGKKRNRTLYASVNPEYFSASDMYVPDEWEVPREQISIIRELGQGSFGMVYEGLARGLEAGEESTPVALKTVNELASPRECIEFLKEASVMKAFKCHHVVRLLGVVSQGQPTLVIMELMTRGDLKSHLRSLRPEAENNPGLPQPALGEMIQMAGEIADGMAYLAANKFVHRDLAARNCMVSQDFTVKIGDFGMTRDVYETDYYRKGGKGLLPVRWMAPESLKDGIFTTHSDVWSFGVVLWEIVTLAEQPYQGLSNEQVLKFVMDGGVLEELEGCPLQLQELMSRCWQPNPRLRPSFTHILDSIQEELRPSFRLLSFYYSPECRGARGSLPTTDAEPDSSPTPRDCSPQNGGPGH
The target in test [5] is T2, MAP4K3 (Homo sapiens, UniProt Q8IVH8).
T2 sequence (Q8IVH8 1-894): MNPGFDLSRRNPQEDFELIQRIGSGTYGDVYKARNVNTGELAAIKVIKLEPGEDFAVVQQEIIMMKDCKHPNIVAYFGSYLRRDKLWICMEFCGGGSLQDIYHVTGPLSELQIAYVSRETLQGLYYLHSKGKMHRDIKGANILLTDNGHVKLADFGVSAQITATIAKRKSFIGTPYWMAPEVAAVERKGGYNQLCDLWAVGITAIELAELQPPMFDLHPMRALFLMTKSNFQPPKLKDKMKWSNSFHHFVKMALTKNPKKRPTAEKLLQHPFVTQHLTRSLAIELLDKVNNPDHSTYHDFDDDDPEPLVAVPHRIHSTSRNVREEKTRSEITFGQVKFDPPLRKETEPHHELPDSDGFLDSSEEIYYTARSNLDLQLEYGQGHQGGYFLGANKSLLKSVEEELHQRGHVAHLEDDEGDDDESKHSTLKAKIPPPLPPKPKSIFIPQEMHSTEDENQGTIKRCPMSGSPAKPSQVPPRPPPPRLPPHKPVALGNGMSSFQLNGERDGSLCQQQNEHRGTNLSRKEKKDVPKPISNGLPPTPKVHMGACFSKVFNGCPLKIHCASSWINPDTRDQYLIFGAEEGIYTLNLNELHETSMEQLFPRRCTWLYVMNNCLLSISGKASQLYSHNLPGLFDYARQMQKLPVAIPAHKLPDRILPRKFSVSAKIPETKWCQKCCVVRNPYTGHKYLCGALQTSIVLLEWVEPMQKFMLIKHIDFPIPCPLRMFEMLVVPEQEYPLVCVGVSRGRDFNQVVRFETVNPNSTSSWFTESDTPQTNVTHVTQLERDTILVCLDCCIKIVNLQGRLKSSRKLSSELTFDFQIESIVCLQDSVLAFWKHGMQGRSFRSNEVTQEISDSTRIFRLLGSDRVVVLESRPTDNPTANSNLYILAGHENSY
Put plainly: Kinase profiling. Type of test: biochemical.

Test [6] deals with MARK1 (Homo sapiens, UniProt Q9P0L2). Description: Kinase profiling. It is filed as biochemical.
MARK1, sequence (Q9P0L2 whole entry): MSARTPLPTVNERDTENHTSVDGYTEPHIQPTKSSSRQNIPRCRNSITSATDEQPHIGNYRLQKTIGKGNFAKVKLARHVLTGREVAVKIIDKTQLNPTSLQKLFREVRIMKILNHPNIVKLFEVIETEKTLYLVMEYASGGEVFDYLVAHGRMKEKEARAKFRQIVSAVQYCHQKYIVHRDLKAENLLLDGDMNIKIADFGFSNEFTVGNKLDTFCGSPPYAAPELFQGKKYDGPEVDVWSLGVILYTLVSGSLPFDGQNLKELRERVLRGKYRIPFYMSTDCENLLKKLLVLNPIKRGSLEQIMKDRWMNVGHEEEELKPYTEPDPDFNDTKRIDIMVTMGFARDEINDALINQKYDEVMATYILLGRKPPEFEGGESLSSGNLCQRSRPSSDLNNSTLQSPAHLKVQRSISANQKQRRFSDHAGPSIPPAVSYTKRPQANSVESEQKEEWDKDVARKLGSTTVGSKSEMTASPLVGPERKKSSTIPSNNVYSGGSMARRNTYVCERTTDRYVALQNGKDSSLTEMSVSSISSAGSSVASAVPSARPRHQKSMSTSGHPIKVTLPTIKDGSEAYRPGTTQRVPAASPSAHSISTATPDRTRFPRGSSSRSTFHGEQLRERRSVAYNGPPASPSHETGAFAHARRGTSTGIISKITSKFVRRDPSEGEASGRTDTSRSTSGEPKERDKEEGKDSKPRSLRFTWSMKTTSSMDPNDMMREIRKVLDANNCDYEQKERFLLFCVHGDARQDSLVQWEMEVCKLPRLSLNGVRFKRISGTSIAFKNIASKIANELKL
In test [7] the target is PIM2 (Homo sapiens, UniProt Q9P1W9). Description: Kinase profiling. Type of test: biochemical.
PIM2, sequence (Q9P1W9 whole entry): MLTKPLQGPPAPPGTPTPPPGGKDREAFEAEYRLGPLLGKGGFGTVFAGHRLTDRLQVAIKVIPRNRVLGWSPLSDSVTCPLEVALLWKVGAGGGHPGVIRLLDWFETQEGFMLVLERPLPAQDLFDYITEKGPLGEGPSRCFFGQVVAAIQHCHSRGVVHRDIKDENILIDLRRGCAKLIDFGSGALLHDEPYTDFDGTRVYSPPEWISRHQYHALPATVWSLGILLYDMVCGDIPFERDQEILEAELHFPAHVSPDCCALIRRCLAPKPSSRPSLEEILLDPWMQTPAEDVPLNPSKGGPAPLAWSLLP
Test [8] addresses PKB alpha (Homo sapiens, UniProt P31749). Description: Kinase profiling. Type of test: biochemical.
Test [9] addresses T3, TAK1 (Homo sapiens, UniProt O43318).
T3 sequence (O43318 1-303 limits assumed): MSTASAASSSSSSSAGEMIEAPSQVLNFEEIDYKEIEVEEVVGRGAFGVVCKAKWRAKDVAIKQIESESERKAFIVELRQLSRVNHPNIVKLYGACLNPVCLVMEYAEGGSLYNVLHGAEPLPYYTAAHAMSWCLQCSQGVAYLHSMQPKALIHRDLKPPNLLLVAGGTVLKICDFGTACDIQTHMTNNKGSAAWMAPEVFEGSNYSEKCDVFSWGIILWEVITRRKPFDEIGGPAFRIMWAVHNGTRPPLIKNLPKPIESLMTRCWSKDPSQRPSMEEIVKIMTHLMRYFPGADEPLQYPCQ
Put plainly: Kinase profiling. Type of test: biochemical.

PKB alpha, sequence (P31749 whole entry): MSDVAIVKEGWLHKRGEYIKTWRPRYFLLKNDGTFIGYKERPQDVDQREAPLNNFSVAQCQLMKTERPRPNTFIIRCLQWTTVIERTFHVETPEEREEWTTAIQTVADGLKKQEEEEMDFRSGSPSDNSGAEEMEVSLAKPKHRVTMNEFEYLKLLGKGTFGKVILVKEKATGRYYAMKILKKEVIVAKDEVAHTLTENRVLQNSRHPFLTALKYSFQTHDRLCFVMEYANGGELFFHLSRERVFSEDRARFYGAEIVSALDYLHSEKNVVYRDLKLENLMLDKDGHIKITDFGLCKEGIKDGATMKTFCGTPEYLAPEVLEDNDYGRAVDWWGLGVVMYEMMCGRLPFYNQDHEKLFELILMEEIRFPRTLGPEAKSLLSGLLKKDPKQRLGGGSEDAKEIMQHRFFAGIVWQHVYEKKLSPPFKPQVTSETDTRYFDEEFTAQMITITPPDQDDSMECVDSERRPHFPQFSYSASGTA

The remaining activity is the signal under treatment as a percentage of the control signal. For the compound `COc1cc(Nc2c(C#N)cnc3cc(OCCCN4CCN(C)CC4)c(OC)cc23)c(Cl)cc1Cl` [Bosutinib, bosutinib], the “Localization of CRTC3” value in test [1] is given as “translocation to the nucleus”. For the same compound, the “Production of IL-6, IL-12p40 and TNFα” value in [2] is listed as “inhibited”. For the same compound, the remaining activity at 0.1 µM in [3] stood at 46 ± 7%; in test [4], 72 ± 5%; in [5], 3%; in test [6] it was 84 ± 5%; in [7], 99%; in [8] (0.1 µM) it was 110 ± 16%. Besides, the remaining activity at 0.1 µM in [9] was found to be 41 ± 9%. In addition, the remaining activity at 1 µM in test [3] stood at 6%; in test [4] it was 59 ± 1%; in test [5], 1%; in test [6], 76 ± 4%; in test [7] it was 96 ± 8%; in test [8], 116 ± 30%. In addition, the remaining activity at 1 µM in test [9] stood at 5%.

As to `Cc1nc(Nc2ncc(C(=O)Nc3c(C)cccc3Cl)s2)cc(N2CCN(CCO)CC2)n1` [Dasatinib], in test [1], the “Localization of CRTC3” value is “translocation to the nucleus”. Further, the “Production of IL-6, IL-12p40 and TNFα” value in test [2] is “inhibited”. The remaining activity at 0.1 µM turned out to be 102 ± 5% in [3]; 89 ± 4% in test [4]; 88 ± 15% in [5]; 115 ± 3% in test [6]; 104 ± 3% in test [7]; 97 ± 23% in test [9]. In addition, the remaining activity at 1 µM in test [3] was found to be 123 ± 13%; in [4], 90 ± 14%; in [5] it was 54 ± 1%; in test [6], 127 ± 3%; in test [7], 105 ± 1%; in test [8], 120 ± 13%. Also, the remaining activity at 1 µM in test [9] is 99 ± 7%.

The values are drawn from article PMC4286194 (Biochemical Journal, 2015).
